In US5053337A, “DNA encoding an α2B -adrenergic receptor” (Neurogenetic Corporation, priority 1989, dated 1991):

Legend:
[1] = biological target: T1, human α2B -adrenergic receptor (NGC-α2B) (Homo sapiens, UniProt P18089)
T1 sequence (P18089 1-450): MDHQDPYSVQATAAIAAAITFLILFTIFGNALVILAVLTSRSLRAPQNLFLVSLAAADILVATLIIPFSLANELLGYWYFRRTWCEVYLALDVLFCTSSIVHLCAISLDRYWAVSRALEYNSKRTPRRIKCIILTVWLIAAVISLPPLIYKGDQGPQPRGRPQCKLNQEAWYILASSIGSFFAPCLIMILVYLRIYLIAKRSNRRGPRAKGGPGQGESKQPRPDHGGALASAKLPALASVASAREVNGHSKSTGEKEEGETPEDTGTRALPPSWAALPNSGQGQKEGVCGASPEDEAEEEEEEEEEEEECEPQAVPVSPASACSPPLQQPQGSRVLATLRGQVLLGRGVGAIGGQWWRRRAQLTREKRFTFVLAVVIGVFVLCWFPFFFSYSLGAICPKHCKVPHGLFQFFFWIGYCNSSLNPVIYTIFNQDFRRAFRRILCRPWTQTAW

[2] = biological target: T1, human α2B -adrenergic receptor (NGC-α2B); assay: biochemical
[3] = biological target: T1, human α2B -adrenergic receptor (NGC-α2B); remark: listed apart in the source

Compound	nH (Hill Coefficient) [1]	Ki [2] [nM]	inhibition [3] [%]	ability to compete with 3H-Rauwolscine for binding (in words) ([3]; pNGC-α2B transfected Cos-7 or Ltk- cell membranes)
O=C(c1ccc(F)cc1)C1CCN(CCn2c(=O)[nH]c3ccccc3c2=O)CC1 [Ketanserin]	1.21 ± 0.12			
COc1cccc(OC)c1OCCNCC1COc2ccccc2O1 (centres unmarked) [WB-4101]	1.5	55		
NCCc1c[nH]c2ccc(O)cc12 [Serotonin]			15	inability
